Measurements published in publication PMC7019360, “Antihypertensive Effects of Virgin Olive Oil (Unfiltered) Low Molecular Weight Peptides with ACE Inhibitory Activity in Spontaneously Hypertensive Rats” (Nutrients, 2020).
Ends that are not written are not given here. Peptide text beside a SMILES is read from it.

Target: angiotensin-converting enzyme (ACE) (Homo sapiens, UniProt P12821)
Assay: ACE inhibitory activity in vitro (IC50)
Assay type: biochemical
Details: chemically synthesised peptides, method of ref 35 with modifications of ref 28, mean ± SD, SD, read-out: ACEi Activity IC50 (µm) ± SD
From the text: The ACE inhibitory activity of the samples was studied using the methodology specified in [35], with some modifications. The ACE inhibitory activity is shown as IC50, or the concentration needed to inhibit the activity of the enzyme by 50%.

angiotensin-converting enzyme (ACE), sequence (P12821 30-1306, species assumed): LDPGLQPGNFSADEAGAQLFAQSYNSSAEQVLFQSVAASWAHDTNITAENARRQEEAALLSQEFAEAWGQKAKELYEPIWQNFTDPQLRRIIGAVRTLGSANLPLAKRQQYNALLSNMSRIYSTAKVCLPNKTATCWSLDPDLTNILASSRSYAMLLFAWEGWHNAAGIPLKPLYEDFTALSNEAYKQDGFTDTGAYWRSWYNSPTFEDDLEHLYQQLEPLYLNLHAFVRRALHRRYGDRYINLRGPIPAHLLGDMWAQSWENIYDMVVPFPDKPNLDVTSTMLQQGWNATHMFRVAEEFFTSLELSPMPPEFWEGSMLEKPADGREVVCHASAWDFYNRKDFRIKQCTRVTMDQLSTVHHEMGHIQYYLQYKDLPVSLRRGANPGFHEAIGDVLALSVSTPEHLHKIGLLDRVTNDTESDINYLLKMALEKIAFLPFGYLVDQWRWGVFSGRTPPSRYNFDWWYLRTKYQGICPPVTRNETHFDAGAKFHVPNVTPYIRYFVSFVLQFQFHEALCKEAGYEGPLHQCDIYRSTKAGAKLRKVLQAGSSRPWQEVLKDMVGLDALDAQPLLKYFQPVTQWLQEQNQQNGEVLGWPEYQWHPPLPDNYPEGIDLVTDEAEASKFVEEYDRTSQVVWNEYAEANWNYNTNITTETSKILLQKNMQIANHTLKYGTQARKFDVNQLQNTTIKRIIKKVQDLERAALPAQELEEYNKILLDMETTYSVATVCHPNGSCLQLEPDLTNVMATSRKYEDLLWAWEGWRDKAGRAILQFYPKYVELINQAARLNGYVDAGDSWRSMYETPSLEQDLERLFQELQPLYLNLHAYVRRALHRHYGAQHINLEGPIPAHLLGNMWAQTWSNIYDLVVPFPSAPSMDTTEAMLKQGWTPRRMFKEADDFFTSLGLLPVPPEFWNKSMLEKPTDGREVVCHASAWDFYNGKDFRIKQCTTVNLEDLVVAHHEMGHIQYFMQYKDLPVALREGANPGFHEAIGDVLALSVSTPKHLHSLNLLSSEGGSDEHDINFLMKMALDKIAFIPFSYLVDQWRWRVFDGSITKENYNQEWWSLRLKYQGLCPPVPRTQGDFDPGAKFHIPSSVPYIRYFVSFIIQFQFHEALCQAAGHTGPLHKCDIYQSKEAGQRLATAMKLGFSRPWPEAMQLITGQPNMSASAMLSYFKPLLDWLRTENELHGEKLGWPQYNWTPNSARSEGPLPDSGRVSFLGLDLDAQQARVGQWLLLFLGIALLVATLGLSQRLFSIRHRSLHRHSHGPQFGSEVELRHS

Compound	IC50 [µM]
N=C(N)NCCC[C@H](N)C(=O)N[C@@H](CC(=O)O)C(=O)NCC(=O)NCC(=O)N[C@@H](Cc1ccc(O)cc1)C(=O)N[C@@H](CS)C(=O)N[C@@H](CS)C(=O)O [SEQ No.1] (H-RDGGYCC-OH)	0.84 ± 0.02
CC(C)C[C@H](N)C(=O)N[C@@H](CCC(=O)O)C(=O)N[C@@H](CCC(=O)O)C(=O)N[C@@H](Cc1ccccc1)C(=O)N[C@@H](CS)C(=O)N[C@@H](CS)C(=O)O [SEQ No.2] (H-LEEFCC-OH)	1.85 ± 0.16
C[C@@H](O)[C@H](NC(=O)[C@H](CC(N)=O)NC(=O)[C@H](CS)NC(=O)CNC(=O)[C@H](CS)NC(=O)[C@@H](N)Cc1c[nH]cn1)C(=O)N[C@@H](Cc1c[nH]cn1)C(=O)O [SEQ No.3] (H-HCGCNTH-OH)	2.58 ± 0.26
CC(C)[C@H](NC(=O)[C@H](C)NC(=O)[C@H](CC(N)=O)NC(=O)CNC(=O)[C@H](CS)NC(=O)[C@@H](N)CS)C(=O)N1CCC[C@H]1C(=O)N[C@@H](CCC(N)=O)C(=O)O [SEQ No.4] (H-CCGNAVPQ-OH)	39.6 ± 2.09
CC(C)C[C@H](NC(=O)[C@H](CC(=O)O)NC(=O)[C@H](CS)NC(=O)CNC(=O)[C@H](CS)NC(=O)CNC(=O)[C@@H](N)Cc1ccc(O)cc1)C(=O)N1CCC[C@H]1C(=O)O [SEQ No.5] (H-YGCGCDLP-OH)	3.51 ± 0.21
CC(C)C[C@H](NC(=O)[C@@H]1CCCN1C(=O)[C@H](CC(=O)O)NC(=O)[C@H](CS)NC(=O)CNC(=O)[C@H](CS)NC(=O)CNC(=O)[C@@H](N)Cc1ccc(O)cc1)C(=O)O [SEQ No.6] (H-YGCGCDPL-OH)	1.64 ± 0.02
C[C@H](NC(=O)[C@H](C)NC(=O)[C@@H](N)Cc1c[nH]c2ccccc12)C(=O)NCC(=O)N[C@@H](Cc1ccc(O)cc1)C(=O)N[C@@H](CS)C(=O)N[C@@H](CS)C(=O)O [SEQ No.8] (H-WAAGYCC-OH)	6.88 ± 0.3
EECHAH [SEQ No.9]	11.8 ± 1.99
LALAPTN [SEQ No.14]	135 ± 13.5
LALSAPVP [SEQ No.16]	305 ± 10.9
LEFTSSY [SEQ No.12]	107 ± 14.7
RPVPPVF [SEQ No.15]	230 ± 36.5
YMHCYF [SEQ No.7]	3.2 ± 0.23

Same assay, conditions: chemically synthesised peptides, method of ref 35 with modifications of ref 28, mean ± SD, read-out: ACEi Activity IC50 (µm) ± SD

Compound	IC50 [µM]
EAPGGYDD [SEQ No.19]	> 405
KRRPPTT [SEQ No.18]	> 390
MSMAPY [SEQ No.23]	> 480
YEAYPS [SEQ No.21]	> 460

Tested on: spontaneously hypertensive rats (SHR)
Assay: Antihypertensive activity in SHR, tail-cuff SBP after acute oral administration
Assay type: in vivo, rat
Details: oral Captopril 50 mg/kg BW, at 24 h
From the text: The antihypertensive effect of synthetic peptides No. 1 (RDGGYCC), No. 2 (LEEFCC), No. 3 (HCGCNTH) and No. 4 (CCGNAVPQ) was studied on the systolic blood pressure (SBP) and diastolic blood pressure (DBP) using the spontaneously hypertensive rat (SHR) animal model of hypertension. The tail-cuff method was used to measure SBP and DBP [36] as described in [28]. We selected a dose of synthetic peptides in the range described in previous studies of antihypertensive effects of peptides with ACE inhibitory activity. SBP and DBP data was always collected by the same technician. A period of training of two weeks was set to allow the animals to be habituated to this methodology. Forty-eight male SHR (age 19–21 weeks) were used. The average BW of the animals was 322.0 ± 6.0 g. The synthetic peptides were dissolved in water and were administered orally to the animals (about 1 mL per animal). The ACE inhibitor drug Captopril (Sigma, St. Louis, MO, USA) was used as a positive control and water was used as a negative control. The SHR were distributed randomly into 6 study groups (n = 8 per group) and received an oral dose of one of the four synthetic peptides (25 mg/kg of BW), or a dose of Captopril (50 mg/kg of BW) or water (1 mL). SBP and DBP were measured in the rats at baseline (time 0) and at 2, 4, 8 and 24 h post-administration of the peptides or controls. […]

Compound	Time course of the antihypertensive effect (SBP)
C[C@H](CS)C(=O)N1CCC[C@H]1C(=O)O [Captopril]	returned to basal levels

Tested on: not listed separately
Assay: Water solubility of synthetic peptide
Assay type: physicochemical
Details: reason why the ACE activity was not determined

Compound	Water solubility
LQFCCY [SEQ No.17, synthetic peptide LQFCCY from olive oil extract]	not water soluble

Tested on: ACE
Assay: not given
Details: bovine casein-derived peptide; cited from earlier work
From the text: The process of development of high blood pressure in humans presents analogies with the development of hypertension in SHR. For this reason, the SHR model has been extensively used in the evaluation of food peptides with antihypertensive potential. […] It contains four dipeptides (DG, GG, GY, DG) with previously reported activity, h ...

Compound	In vitro ACE inhibitory activity
KVLPVPQ	low in vitro ACE inhibitory activity

Tested on: SHR
Assay: not given
Details: bovine casein-derived peptide; cited from earlier work
From the text: The study of ACE inhibitor peptides in foods is a very active area of research and there are a few available data bases with information on peptide sequences and biological activity. We used the BIOPEP data base to assist with our selection of peptides because it uses previous published research providing information about the number of ACE inhibitor motifs of a peptide sequence and calculates the peptide's theoretical activity. Apart from the ACE inhibitory activity, the data base detected additional potential activities of our selected peptides, including antioxidant (Nos. 9 and 11), anti-th ... || The process of development of high blood pressure in humans presents analogies with the development of hypertension in SHR. For this reason, the SHR model has been extensively used in the evaluation of food peptides with antihypertensive potential. […] It contains four dipeptides (DG, GG, GY, DG) with previously reported activity, h ...

Compound	SBP reducing effect in SHR
KVLPVPQ	high SBP reducing effect
